Earlier results in patent US9857354B2, “Compositions and methods for prognosis and treatment of neoplasm” (NOVAZOI THERANOSTICS, INC., priority 2014, dated 2018).
pKi: −log10 of the molar value.

How the values were obtained:
[1] = biological target: T1, KIFC1/microtubule (MT) binary complex (Homo sapiens, UniProt Q9BW19); conditions: ATP-competitive and MT-noncompetitive; read-out: Ki, inhibition of MT-stimulated KIFC1 enzymatic activity
T1 sequence (Q9BW19 1-673): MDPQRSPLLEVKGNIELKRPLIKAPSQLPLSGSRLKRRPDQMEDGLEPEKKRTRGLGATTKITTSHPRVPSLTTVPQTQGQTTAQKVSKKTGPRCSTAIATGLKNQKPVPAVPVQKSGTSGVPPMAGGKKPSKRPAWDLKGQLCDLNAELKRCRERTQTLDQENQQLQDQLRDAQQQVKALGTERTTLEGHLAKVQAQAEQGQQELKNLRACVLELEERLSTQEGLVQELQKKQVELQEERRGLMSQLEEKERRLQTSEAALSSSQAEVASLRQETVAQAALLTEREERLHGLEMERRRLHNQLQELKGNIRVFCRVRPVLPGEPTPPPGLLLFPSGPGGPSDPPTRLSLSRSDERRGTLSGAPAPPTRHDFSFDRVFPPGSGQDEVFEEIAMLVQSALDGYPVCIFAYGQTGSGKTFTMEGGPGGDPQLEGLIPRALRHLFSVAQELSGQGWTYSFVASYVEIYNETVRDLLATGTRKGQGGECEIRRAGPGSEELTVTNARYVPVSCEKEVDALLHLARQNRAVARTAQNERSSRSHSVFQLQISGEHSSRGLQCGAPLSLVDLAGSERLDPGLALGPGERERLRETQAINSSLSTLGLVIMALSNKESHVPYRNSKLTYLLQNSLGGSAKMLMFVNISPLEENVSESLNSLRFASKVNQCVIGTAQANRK

[2] = system: BT-549 breast cancer cells; conditions: BT-549 breast cancer cells with amplified centrosomes

Structure (SMILES): CCCc1cc(C(=O)N[C@H](Cc2ccc(-c3cccc(OC(F)(F)F)c3)nc2)C(=O)N[C@@H]2CCNC2)sc1C [AZ82]
- pKi [1]: 7.37
- centrosome declustering [2]: causes centrosome declustering
